Reference: patent US20160030416A1, “METHODS OF TREATING B2-BRADYKININ RECEPTOR MEDIATED ANGIOEDEMA” (SHIRE HUMAN GENETIC THERAPIES, INC., priority 2013, published 2016)
Values after ≈ are worked out from the molar mass of the structure shown. Values joined by “and” are separate entries in the source; they are usually repeats but may differ in a detail not shown here. Equal values may be shown once. Read-outs that look alike come from different tables or passages of the source.

Columns and labels:
[1] = Cross-over PK, IV and PO, cynomolgus monkeys; assay type: in vivo, male cynomolgus monkey
Protocol: A cross-over PK (pharmacokinetic) analysis was conducted in cynomolgus monkey. Two fasted male monkeys in each dose group received a single 1.0 mg/kg dose of CFMQ (HGT3711) by either IV (intravenous) or PO (oral) administration, with a 7-day washout period between each dose. The dose concentration was 1.0 mg/mL with a dose volume of 1.0 mL/kg. Blood samples were collected via the femoral vein at 0.083 (5 min), 0.25 (15 min), 0.5 (30 min), 1, 1.5, 2, 3, 4, 6, 8, 18 and 24 hours post-dose. Plasma concentrations of CFMQ (HGT3711) were determined by LC-MS/MS and concentrations below the limit of quantitation (2.5 ng/mL) were assigned a value of zero for pharmacokinetic analysis. Following oral administration of CFMQ (1 mg/kg), the concentration of CFMQ in plasma was below the limit of quantitation (BLQ=<2.5 ng/ml) at each sampling time point, preventing assessment of pharmacokinetic properties of CFMQ after oral administration in monkeys in this study. Table 11 summarizes the average PK properties for IV and PO dosed groups.

[2] = Pharmacokinetics, single oral gavage, CD-1 mice; assay type: in vivo, female CD-1 mice; conditions: female, CD-1, mouse, plasma
Protocol: CFMQ (HGT3711) was administered to fasted female CD-1 mice (n=18/dose group) by a single oral gavage at 100, 250 and 450 mg/kg in a dose volume of 5 mL/kg in a spray-dried dispersion formulation (discussed below). Blood samples were taken via cardiocentesis or abdominal vein prior to administration and at 10, 30, 60 (1 hr), 120 (2 hr), 240 (4 hr) and 480 (8 hr) minutes post dose. Plasma concentrations of CFMQ (HGT3711) were determined by LC-MS/MS (liquid chromatography mass spectrometry) and concentrations below the limit of quantitation (3 ng/mL) were assigned a value of zero for pharmacokinetic analysis. Nominal dosing concentrations were used in all calculations.

[3] = Solubility of CFMQ in vehicles; assay type: physicochemical
Protocol: (§1) The physicochemical properties of 1-((4-Chloro-3-(((4-(4-fluoro-1H-pyrazol-1-yl)-2-methylquinolin-8-yl)oxy)methyl)-6-methylpyridin-2-yl)methyl)-2-oxo-1,2-dihydropyridine-3-carbonitrile (CFMQ) were determined using standard methods. CFMQ was a free base with a molecular weight of 514.9 Da and was a nonhygroscopic, crystalline powder with a melting point of about 214° C.

[4] = Physicochemical properties of CFMQ
Protocol: as §1

plasma extravasation = experiment: Plasma extravasation (Evans blue in bladder), oral gavage, wild-type male mice; assay type: in vivo, wild-type (WT) C57/BL6 male mice; conditions: for inhibition of plasma extravasation at % (compared to vehicle controls): after 64 minutes
Description: In vivo experiments in both wild-type (WT) C57BL/6J mice and C1-inhibited knock out (C1 INH KO) mice measured pharmacodynamic efficacy by the ability of CFMQ to block plasma extravasation, which is causative to edema, the most important symptom requiring treatment in HAE subjects. This plasma extravasation model has been used extensively in the literature to investigate the efficacy of bradykinin receptor antagonists. (Han et al., “Increased vascular permeability in C1 inhibitor-deficient mice mediated by the bradykinin type 2 receptor,” J Clin Invest, 2002 April; 109(8): 1057-1063.)
The uptake and effective blocking of plasma extravasation of CFMQ (HGT3711) was examined following oral administration in wild-type (WT) C57/BL6 male mice (n=4/dose group). Mice received a single oral gavage of CFMQ (HGT3711) (10 μL/g) at 3.0 or 10 mg/kg. Blood samples were taken at 20 and 60 minutes post-dose. Following oral administration CFMQ (HGT3711) administration and prior to the terminal time point, mice received an IV injection of Evans blue (EB) dye (30 mg/kg) and were sacrificed. Similar to the IV study, EB concentration in the formamide extract was determined spectrophotometrically (μg EB per milligram of tissue) and efficacy was determined by inhibiting the accumulation of EB in the bladder.

[5] = male, cynomolgus monkey, plasma, IV (1 mg/kg), Mean
[6] = 100 mg/kg, read-out: Average Concentration of HGT3711
[7] = 250 mg/kg, read-out: Average Concentration of HGT3711
[8] = 450 mg/kg, read-out: Average Concentration of HGT3711
[9] = 450 mg/kg, n = 2, read-out: Average Concentration of HGT3711

## Cc1cc(Cl)c(COc2cccc3c(-n4cc(F)cn4)cc(C)nc23)c(Cn2cccc(C#N)c2=O)n1 [CFMQ, 1-((4-Chloro-3-(((4-(4-fluoro-1H-pyrazol-1-yl)-2-methylquinolin-8-yl)oxy)methyl)-6-methylpyridin-2-yl)methyl)-2-oxo-1,2-dihydropyridine-3-carbonitrile]
[1]; IV 1 mg/kg
  Vz as fold of the total body water (0.69 L/kg): 4.32 fold
  systemic clearance as % of monkey hepatic blood flow (2.62 L/hr/kg): 57.63%
[1]; IV (1 mg/kg), Mean
  ACU(0-∞): 693.99 μg/L*hr
[1]; IV (1 mg/kg), Mean, 1 mg/kg
  CLz: 25.2 ± 6.83 mL/min/kg and 25.2 mL/min/kg
  t1/2z: 1.40 ± 0.24 h and 1.40 h
[1]; [5]
  AUC(0-t): 679 ng·h/mL
  Cmax: 410 ng/mL
  Tmax: 0.23 h
[1]; male, cynomolgus monkey, plasma, IV (1 mg/kg), Mean, read-out: MRT(0-∞)
  MRT inf: 1.77 h
[1]; male, cynomolgus, cynomolgus monkey, plasma, IV (1 mg/kg), Mean
  Cmax: 410 ± 107 ng/mL
[1]; male, cynomolgus, cynomolgus monkey, plasma, IV (1 mg/kg), Mean, read-out: Vz
  Vd: 2.98 ± 0.55 L/kg
[1]; oral 1 mg/kg, at each sampling time point (below limit of quantitation)
  concentration of CFMQ in plasma: < 2.5 ng/mL
[1]; oral 1 mg/kg, monkey
  oral bioavailability: no bioavailability
[2]; 100 mg/kg
  AUC(0-inf): 10500 ng·h/mL
  AUC(0-t): 10500 ng·h/mL
  Cmax: 5300 ng/mL
[2]; [6]
  concentration at 10 min: 5300 ng/mL
  concentration at 30 min: 4100 ng/mL
  concentration at 60 min: 5170 ng/mL
  concentration at 120 min: 2200 ng/mL
  concentration at 240 min: 78 ng/mL
  concentration at 480 min: 18 ng/mL
[2]; 250 mg/kg
  AUC(0-inf): 24500 ng·h/mL
  AUC(0-t): 24400 ng·h/mL
  Cmax: 13300 ng/mL
[2]; [7]
  concentration at 10 min: 6250 ng/mL
  concentration at 30 min: 13300 ng/mL
  concentration at 60 min: 10400 ng/mL
  concentration at 120 min: 4570 ng/mL
  concentration at 240 min: 854 ng/mL
  concentration at 480 min: 45 ng/mL
[2]; 450 mg/kg
  AUC(0-inf): 40900 ng·h/mL
  AUC(0-t): 40800 ng·h/mL
  Cmax: 15800 ng/mL
[2]; [8]
  concentration at 10 min: 11600 ng/mL
  concentration at 30 min: 14600 ng/mL
  concentration at 240 min: 3370 ng/mL
  concentration at 480 min: 88 ng/mL
[2]; [9]
  concentration at 60 min: 15800 ng/mL
  concentration at 120 min: 6440 ng/mL
[3]; 0.1 N HCl, simulated gastric fluid, HCl 0.1N, pH 1.3
  solubility: 320 µg/mL (≈ 621 µM)
[3]; Labrasol (glyceryl and polyethylene glycol esters), aqueous with cosolvent or surfactant or cyclodextrin
  solubility: 1430 µg/mL (≈ 2780 µM)
[3]; NaOH 0.1N, pH 12.8, aqueous buffer
  solubility: < 10 µg/mL
[3]; PEG400 (polyethylene glycol 400), organic solvent or mixture
  solubility: 2370 µg/mL (≈ 4600 µM)
[3]; Tween 20 (polyoxyethylene (20) sorbitan monolaurate), aqueous with cosolvent or surfactant or cyclodextrin
  solubility: 870 µg/mL (≈ 1690 µM)
[3]; Tween 80 (polyoxyethylene (80) sorbitan monolaurate), aqueous with cosolvent or surfactant or cyclodextrin
  solubility: 3500 µg/mL (≈ 6800 µM)
[3]; citrate/NaOH buffer, aqueous buffer, Citrate/NaOH pH 2
  solubility: 20 µg/mL (≈ 38.8 µM)
[3]; citrate/NaOH buffer, aqueous buffer, Citrate/NaOH pH 5
  solubility: < 10 µg/mL
[3]; ethanol, organic solvent or mixture
  solubility: 170 µg/mL (≈ 330 µM)
[3]; glycerol, organic solvent or mixture
  solubility: 10 µg/mL (≈ 19.4 µM)
[3]; olive oil, oil or lipid
  solubility: < 10 µg/mL
[3]; organic solvent or mixture, Acetic acid, glacial
  solubility: 19900 µg/mL (≈ 38600 µM)
[3]; phosphate buffer, pH 7, aqueous buffer
  solubility: < 10 µg/mL
[3]; propylene glycol, organic solvent or mixture
  solubility: 100 µg/mL (≈ 194 µM)
[3]; water
  solubility: < 10 µg/mL
[4]
  pKa1: 3.95
  pKa2: 1.70
[4]; acidic environments
  solubility in acidic environments: greatly enhanced
[4]; aqueous medium
  solubility in aqueous medium: slight solubility
[4]; pH = 7.4
  logD: 3.47
[4]; phosphate buffered saline (PBS), aqueous buffer
  solubility: 33 µM (≈ 17 µg/mL)
Plasma extravasation; oral 3.0 mg/kg, 4 minutes post dose
  inhibition of plasma extravasation to % (compared to vehicle controls): 56%
Plasma extravasation; oral 3.0 mg/kg, 24 minutes post dose
  inhibition of plasma extravasation to % (compared to vehicle controls): 58%
Plasma extravasation; oral 3.0 mg/kg
  inhibition of plasma extravasation at % (compared to vehicle controls): 72%
Plasma extravasation; oral 10 mg/kg, 4 minutes post dose
  inhibition of plasma extravasation to % (compared to vehicle controls): 14%
Plasma extravasation; oral 10 mg/kg, 24 minutes post dose
  inhibition of plasma extravasation to % (compared to vehicle controls): 21%
Plasma extravasation; oral 10 mg/kg
  inhibition of plasma extravasation at % (compared to vehicle controls): 75%
